Tests used:
[1] = in vitro liver microsome metabolic stability, human; assay type: in vitro ADME; details: Human liver microsomes, 37°C
Procedure, shortened: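 Test compound at 1 µM final (100 µM working solution diluted 1:100) incubated at 37°C with liver microsomes in pH 7.4 phosphate buffer with NADP/G6P/G6PDH/MgCl2 regenerating system; sampled 0–30 min, LC-MS/MS vs internal standard. T1/2 = 0.693/k from remaining-fraction decay.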

[2] = target: T1, human CCR6 (Homo sapiens, UniProt P51684); test: human CCR6 calcium flux activity (FLIPR, HEK293 cells stably expressing human CCR6, CCL20 stimulation); assay type: cell-based; details: for IC50: HEK293 cells stably expressing human CCR6, EC80 human MIP-3 alpha/CCL20, read-out: CCR6 inhibitory activity, IC50; for CCR6 selectivity: ratio of CXCR2 IC50 to CCR6 IC50
T1 construct: expressed in transfected cells; host or cells: HEK293
T1 sequence (P51684 1-374): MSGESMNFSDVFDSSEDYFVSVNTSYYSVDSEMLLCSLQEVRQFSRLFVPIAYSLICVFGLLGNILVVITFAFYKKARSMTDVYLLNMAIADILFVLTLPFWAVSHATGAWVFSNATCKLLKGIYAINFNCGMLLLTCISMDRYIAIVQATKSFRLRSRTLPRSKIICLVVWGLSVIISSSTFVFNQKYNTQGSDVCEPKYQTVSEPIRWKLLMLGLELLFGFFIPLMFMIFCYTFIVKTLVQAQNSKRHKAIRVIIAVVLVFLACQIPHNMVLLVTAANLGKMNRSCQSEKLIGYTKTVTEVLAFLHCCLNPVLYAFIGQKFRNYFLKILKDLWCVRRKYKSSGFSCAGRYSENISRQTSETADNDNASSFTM
Procedure, shortened: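 Compounds preincubated with Fluo-4 Direct-loaded cells 50 min at 37 °C, then 10 min at room temperature, before CCL20 challenge at EC80. Fluorescence (ex 494/em 516 nm) recorded 90 s; max−min signal gives inhibition, four-parameter fit yields IC50.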

[3] = in vitro liver microsome metabolic stability, mouse; assay type: in vitro ADME; details: Mouse liver microsomes, 37°C
Experimental: Preparation of working solutions for test compounds and standards: An appropriate amount of the compound was accurately weighed and dissolved in a corresponding volume of suitable solvent to prepare 1 mM stock solutions of the test compounds and standards. The stock solutions were then diluted with appropriate solvent to obtain 100 µM working solutions of the test compounds, ensuring that the DMSO content in the working solutions remained below 10%.
The internal standard compound testosterone (or tolbutamide) and its corresponding solvent, internal standard concentration (200 ng/mL), were selected based on the properties of the test compound.
• Solution A: 0.1 mol/L K2HPO4 (2.28 g K2HPO4·3H2O was dissolved in 100 mL of double-distilled water); • Solution B: 0.1 mol/L KH2PO4 (1.36 g KH2PO4 was dissolved in 100 mL of double-distilled water); • 80.2 mL of Solution A and 19.8 mL of Solution B were mixed thoroughly, and the pH was adjusted to 7.4.
37.5 mg of glycine was weighed, dissolved in 100 mL of ultrapure water, and adjusted to pH 8.0 with NaOH.
1.25 mg of glucose-6-phosphate dehydrogenase (400 U/mg) was weighed (the specific amount weighed was calculated based on the activity of the purchased glucose-6-phosphate dehydrogenase), dissolved in 1 mL of glycine buffer to a concentration of 500 U/mL, aliquoted into 20 µL per tube, and stored at -20°C for future use.
7.83 mg of NADP, 0.06 mL of D-glucose-6-phosphate (260 mg/mL), and 10.17 mg of MgCl2·6H2O were precisely weighed.
The mixture was dissolved in 1 mL of pure water. The cofactor ratio composition: NADP 10 mM, D-glucose-6-phosphate 60 mM, MgCl2·6H2O 50 mM.
The reaction system (taking a 500 µL system as an example) was composed of the following solution ratios: 416.5 µL phosphate buffer, 5 µL compound working solution, 25 µL liver microsomes, 3.5 µL glucose-6-phosphate dehydrogenase, and 50 µL cofactor solution. The total incubation volume could be adjusted according to experimental requirements.
416.5 µL of phosphate buffer was taken, 25 µL of liver microsomes, 3.5 µL of glucose-6-phosphate dehydrogenase, and 50 µL of cofactor solution were added, vortexed twice to mix, and preincubated in a 37°C water bath for 5 minutes. Then, 5 µL of the test compound working solution was added, vortexed twice to mix, each time for 2-3 seconds, and placed in a 37°C water bath to initiate the reaction, with two parallel samples set. At 0.5 min, 1 min, 2 min, 5 min, 15 min, and 30 min after the reaction, 50 µL of the mixture was taken and added to centrifuge tubes containing 200 µL of 0°C pre-cooled internal standard working solution to terminate the reaction, vortexed for 1 minute to mix, and centrifuged at 13,000 rpm for 10 minutes in a 4°C pre-cooled high-speed centrifuge. The supernatant was collected for analysis. After the compound was added and vortex-mixed, 50 µL of the mixture was rapidly transferred to a centrifuge tube containing 200 µL of a pre-cooled (0°C) internal standard working solution to terminate the reaction, vortex-mixed for 1 minute, and used as the relative zero-point sample (relative to the standard group). The sample was then placed into a 37°C water bath to initiate the reaction, and timing was started.
The sample analysis of the test compound was performed using the liquid chromatography-tandem mass spectrometry (LCMS/MS) method. The semi-quantitative determination was performed using the ratio of the analyte peak area to the internal standard peak area. The retention times of the analyte and internal standard, chromatogram acquisition, and chromatogram integration were processed using Analyst software.
The in vitro elimination rate constant k of the test compound and the control compound was determined by converting the ratio of the peak area of the test compound to the internal standard into the remaining rate, and T1/2 was then calculated according to the following formula. T1/2 = (Ln2)/(k) = (0.693)/(k) [formula] Table 3. […]

Structure (SMILES)	Liver microsome T1-2 (min) Human [1] [min]	IC50 [2] [µM]	CCR6 selectivity [2]	Liver microsome T1-2 (min) Mouse [3] [min]
CC#C[C@H](Nc1c(Nc2ccnc(C(=O)N(C)C)c2O)c(=O)c1=O)C1(C)CCCC1 [compound 113, (R)-3-hydroxy-N, N-dimethyl-4-((2-((1-(1-methylcyclopentyl)but-2-yn-1-yl)amino)-3,4-dioxocyclobut-1-en-1-yl)amino)picolinamide]	577.09	0.0498	29.7	
CN(C)C(=O)c1nccc(Nc2c(N[C@@H](C#CC3CC3)C3(C)CCCC3)c(=O)c2=O)c1O [compound 115, (R)-4-((2-((3-cyclopropyl-1-(1-methylcyclopentyl)prop-2-yn-1-yl)amino)-3,4-dioxocyclobut-1-en-1-yl)amino)-3-hydroxy-N,N-dimethylpicolinamide]	247.27	0.0476	11.1	1889.54
CN(C)C(=O)c1nccc(Nc2c(N[C@@H](C#CC3CCC3)[C@]3(C)CC(F)(F)CO3)c(=O)c2=O)c1O (single isomer, unassigned) [110A]	641.85	0.0093	32.0	1597.63
CN(C)C(=O)c1nccc(Nc2c(N[C@@H](c3cccc(CF)n3)C3(C)CCCC3)c(=O)c2=O)c1O [compound 108, (R)-4-((2-(((6-(fluoromethyl)pyridin-2-yl)(1-methylcyclopentyl)methyl)amino)-3,4-dioxocyclobut-1-en-1-yl)amino)-3-hydroxy-N,N-dimethylpicolinamide]	458.54	0.0039	189.6	
CC#C[C@H](Nc1c(Nc2ccc(Cl)c(C(=O)N(C)C)c2O)c(=O)c1=O)C1(C)CCCC1 [compound 114, (R)-6-chloro-2-hydroxy-N, N-dimethyl-3-((2-((1-(1-methylcyclopentyl)but-2-yn-1-yl)amino)-3,4-dioxocyclobut-1-en-1-yl)amino)benzamide]	392.83	0.0553	26.2	361.28
Cc1cc(F)cnc1[C@H](Nc1c(Nc2ccnc(C(=O)N(C)C)c2O)c(=O)c1=O)[C@]1(C)CC(F)(F)CO1 [093A, 4-((2-(((S)-((S)-4,4-difluoro-2-methyltetrahydrofuran-2-yl)(5-fluoro-3-methylpyridin-2-yl)methyl)amino)-3,4-dioxocyclobut-1-en-1-yl)amino)-3-hydroxy-N,N-dimethylpicolinamide]	359.51	0.0171	> 5848.0	
CN(C)C(=O)c1nccc(Nc2c(N[C@@H](c3ccc(F)cn3)C3(C)CCCC3)c(=O)c2=O)c1O [compound 005, (R)-4-((2-(((5-fluoropyridin-2-yl)(1-methylcyclopentyl)methyl)amino)-3,4-dioxocyclobut-1-en-1-yl)amino)-3-hydroxy-N,N-dimethylpicolinamide]	431.17	0.0109	115.0	1188.6
CN(C)C(=O)c1nccc(Nc2c(N[C@@H](c3nc(Cl)ccc3F)[C@@]3(C)CC(F)(F)CO3)c(=O)c2=O)c1O [068B, 4-((2-(((S)-(6-chloro-3-fluoropyridin-2-yl)((R)-4,4-difluoro-2-methyltetrahydrofuran-2-yl)methyl)amino)-3,4-dioxocyclobut-1-en-1-yl)amino)-3-hydroxy-N,N-dimethylpicolinamide]	995.19	0.0053	1440.2	65.23
CN(C)C(=O)c1nccc(Nc2c(N[C@@H](c3cccc(Cl)n3)C3(C)CCCC3)c(=O)c2=O)c1O [compound 003, (R)-4-((2-(((6-chloropyridin-2-yl)(1-methylcyclopentyl)methyl)amino)-3,4-dioxocyclobut-1-en-1-yl)amino)-3-hydroxy-N,N-dimethylpicolinamide]	511.95	0.0221	100.0	
Cc1cccnc1[C@H](Nc1c(Nc2ccc(Cl)c(C(=O)N(C)C)c2O)c(=O)c1=O)C1(C)CCCC1 [compound 063, (R)-6-chloro-2-hydroxy-N,N-dimethyl-3-((2-(((1-methylcyclopentyl)(3-methylpyridin-2-yl)methyl)amino)-3,4-dioxocyclobut-1-en-1-yl)amino)benzamide]	296.47	0.0117	1310.8	≥120
CN(C)C(=O)c1nccc(Nc2c(N[C@@H](c3ncc(F)cc3F)C3(C)CCCC3)c(=O)c2=O)c1O [compound 009, (R)-4-((2-(((3,5-difluoropyridin-2-yl)(1-methylcyclopentyl)methyl)amino)-3,4-dioxocyclobut-1-en-1-yl)amino)-3-hydroxy-N,N-dimethylpicolinamide]	225.37	0.008	303.4	178.84

Reference: patent publication EP4703354A1, “COMPOUND AS CCR6 ANTAGONIST, AND PHARMACEUTICAL COMPOSITION AND USE THEREOF” (Wuhan Createrna Science and Technology Co.,Ltd., priority 2023, dated 2024)
